Laboratory results from PubChem BioAssay AID2305 (GlaxoSmithKline (GSK), 2010).

test system: P. falciparum 3D7 growth, pLDH absorbance; assay: blood-stage malaria parasite growth potency – strain 3D7, dose response (AID 2305)

Row | SMILES | IC50
1 | O=C(/C=C/c1ccc(Cl)c(Cl)c1)NCCCCCN1CCC(NC(=O)Nc2cc(Cl)ccc2Cl)CC1 | 430 nM
2 | COc1ccc(NC(=O)C2c3ccccc3C(=O)N(CC(C)C)C2c2cccs2)cc1OC (centres undefined) | 200 nM
3 | O=C(Nc1cc(C(F)(F)F)cc(C(F)(F)F)c1)NC(CCCN1CCC2(CC1)OCc1ccccc12)c1ccc(Cl)c(Cl)c1 (centres undefined) | 820 nM
4 | O=C(Nc1cccc(C(F)(F)F)c1)NC1CCN(c2ccnc3cc(Cl)ccc23)CC1 | 290 nM
5 | C[C@H](NC(=O)c1c(CN2CCN(C(=O)C(C)(C)C)CC2)c(-c2cccs2)nc2ccccc12)C1CCCCC1 | 1180 nM
6 | CCCc1nc2c(N3CC(NC(=O)/C=C/c4ccccc4)C3)cccc2n1C1CC1 | 550 nM
7 | CC(C)(C)c1nn(-c2ccc(Cl)cc2)c2[nH]c(=O)c(CNCc3cccs3)cc12 | 760 nM
8 | O=C(Nc1ccc(N2CCN(Cc3ccccc3Cl)CC2)cc1)c1ccc([N+](=O)[O-])o1 | 970 nM
9 | Cc1cccc2[nH]c(-c3cccc(-c4ccc(NC(=O)c5cccnc5)cc4)c3)nc12 | 590 nM
10 | C=Cc1sc(CNCCCNc2cc(=O)c3ccccc3[nH]2)c(C)c1Br | 1050 nM
11 | COc1cc2nc(Nc3ccc4c(cnn4Cc4ccccc4)c3)nc(Nc3ccc4c(cnn4Cc4ccccc4)c3)c2cc1OC | 190 nM
12 | Cc1ccc2nc(/C=C/c3cccc4cc[nH]c34)[nH]c2c1 | 1180 nM
13 | Cc1ccc2c(c1)c(-c1ccccc1)c(-c1ccccc1)n2CC(O)CN1CCN(CC=Cc2ccccc2)CC1 (centres undefined) | 780 nM
14 | CC(Cc1ccc(-c2nc3ccccc3[nH]2)cc1)NCC(O)c1cccc(C(F)(F)F)c1 (centres undefined) | 350 nM
15 | CC(Cc1ccc(OCCCCOc2ccccc2)cc1)NCCc1ccc(Oc2ccccc2)cc1 (centres undefined) | 810 nM
16 | COc1cccc(C(=O)OC2=C3CCC(=O)C3(C)CCC2=O)c1 (centres undefined) | 80 nM
17 | COC(=O)c1ccc(CN2CCC(N(Cc3cccc(Oc4ccccc4)c3)S(=O)(=O)c3ccc(NC(C)=O)cc3)CC2)cc1 | 1050 nM
18 | Oc1ccc(CN2CCN(CCOC(c3ccccc3)c3ccccc3)CC2)cc1Cl | 810 nM
19 | O=C(Nc1ccc(-c2cncc(NCCCN3CCCC3)c2)cc1)c1ccccc1 | 940 nM
20 | Cc1ccc(Cn2cnc(N3CC(C)NC(C)C3)cc2=O)cc1NC(=O)Nc1ccc(-c2ccccc2)cc1 (centres undefined) | 850 nM
21 | O=C(Cc1ccccc1)NC(Nc1ccc([N+](=O)[O-])cc1)C(Cl)(Cl)Cl (centres undefined) | 970 nM
22 | CCCCCCN1CCCN(Cc2ccc(C(=O)Nc3ccc(C)c(F)c3)cc2)CC1 | 330 nM
23 | Clc1cc(Nc2ncnc3cc(C#C[C@H]4CCCN4)sc23)cc2[nH]c(Cc3ccccc3)nc12 | 850 nM
24 | COc1cc2c(cc1OCCN1CCC(N3CCCCC3)CC1)N(C(=O)/C=C/c1ccccc1Cl)CC2 | 280 nM
25 | CN(C)CCOc1ccc(/C(=C(/CCCn2ccnc2)c2ccccc2)c2ccc(O)cc2)cc1 | 770 nM

Row | SMILES | IC50
26 | O=C(Nc1ccc(-c2ccccc2)cc1)Nc1cccc(Cn2ncc(N3CCCNCC3)c(Cl)c2=O)c1 | 220 nM
27 | C=C[C@H]1CN2CC[C@H]1C[C@@H]2[C@@H](O)c1ccnc2ccc(OC)cc12 | 120 nM
28 | COc1ccc(NS(=O)(=O)c2ccc(C(=O)Nc3ccc(C(F)(F)F)cc3)cc2)cc1N1CCN(CC2CC2)CC1 | 830 nM
29 | C=CCOc1ccccc1CNCC(O)c1cc(Br)cs1 (centres undefined) | 330 nM
30 | O=C(Nc1ccc(F)cc1)N1CCCN(c2ccnc3cc(Cl)ccc23)CC1 | 790 nM
31 | O=C(c1ccc([N+](=O)[O-])o1)N1CCN(c2ccccc2)CC1 | 40 nM
32 | Cc1ccccc1CCNC(=O)c1cnc(N2CCN(c3ccncc3)CC2)c(Cl)c1 | 1060 nM
33 | NC(N)=NN=Cc1ccc2c(c1)Cc1ccccc1-2 | 590 nM
34 | CN1CCC(NCc2cccc(-c3ccc(S(=O)(=O)NCCc4ccccn4)c(F)c3)c2)CC1 | 920 nM
35 | Cc1c(C(=O)N[C@@H](C)c2ccccc2)c2cc(O)c(Br)cc2n1C1CCCCC1 | 840 nM
36 | O=[N+]([O-])c1cccc(-c2ccc(C=NNc3cc(N4CCCC4)nc(N4CCCC4)n3)o2)c1 | 710 nM
37 | CS(=O)(=O)N1CC2(CCN(CCC(NC(=O)/C=C/c3ccccc3)c3ccc(Cl)c(Cl)c3)CC2)c2ccccc21 (centres undefined) | 780 nM
38 | N#Cc1cccc(Nc2nccc(NCC(O)c3ccccc3C(F)(F)F)n2)c1 (centres undefined) | 830 nM
39 | O=S(=O)(NCCN1CCCC1)c1ccc(-c2ccc(CNC3Cc4ccccc4C3)cc2)cc1F | 1000 nM
40 | c1ccc(CNCc2ccc(-c3ccc(-c4nc5ccccc5[nH]4)cc3)cc2)cc1 | 340 nM
41 | CN1CCC(C(=O)Nc2cccc(-c3ccc(-c4nc5ccc(C(F)(F)F)cc5[nH]4)s3)c2)CC1 | 720 nM
42 | Cn1nc(-c2cccc(CNC3CCc4ccccc43)c2)c2cnc(NC3CCCC3)nc21 (centres undefined) | 860 nM
43 | O=C(Cc1cc(F)cc(F)c1)NC1CCN(c2ccnc3cc(Cl)ccc23)C1 (centres undefined) | 250 nM
44 | Nc1ccc(-c2nc3ccc(Cc4ccc5nc(-c6ccc(N)cc6)[nH]c5c4)cc3[nH]2)cc1 | 510 nM
45 | CCCN(C(=O)c1ccccc1C)c1nnc(-c2cccc(C)c2)s1 | 900 nM
46 | N#Cc1cccc(C(=O)Nc2cccc(-c3cccc(CN4CCNCC4)c3)c2)c1 | 950 nM
47 | CCOC(=O)c1ccc(N2CCN(CCCNC(=O)/C(=C/C=C/c3cc4cc(Cl)c(Cl)cc4[nH]3)OC)CC2)cc1 | 850 nM
48 | Cc1ccc(NC(=O)Nc2ccc(Cn3ncc(N4CCCNCC4)c(Cl)c3=O)cc2)cc1 | 920 nM
49 | Cc1cc(O)c(C(C)C)cc1C1(c2cc(C(C)C)c(O)cc2C)OC(=O)c2ccccc21 | 870 nM
